This note sets out measurements from patent publication US6686343B1, “Triazolopurine derivatives, pharmaceutical compositions containing the derivatives, and adenosine A3 receptor affinitive agents” (Otsuka Pharmaceutical Factory, Inc., priority 1999, dated 2004).

Compound `CSCc1nc2nc[nH]c2c2nc(-c3ccc(-c4ccccc4)cc3)nn12` [Example 48, 8-(4-biphenylyl)-5-methylthiomethyl-1H-1,2,4-triazolo[5,1-i]purine] yielded a melting point of 284 to 286 °C.

Turning to `CCSCc1nc2nc[nH]c2c2nc(-c3ccc(-c4ccccc4)cc3)nn12` [Example 49, 8-(4-biphenylyl)-5-ethylthiomethyl-1H-1,2,4-triazolo[5,1-i]purine], the melting point lay in the range of 264 to 266 °C. With `CC(=O)OCc1nc2nc[nH]c2c2nc(-c3ccc(-c4ccccc4)cc3)nn12` [Example 52, 8-(4-biphenylyl)-5-acetoxymethyl-1H-1,2,4-triazolo[5,1-i]purine], the melting point lay in the range of 233 to 235 °C. Consider `CN(C)Cc1nc2nc[nH]c2c2nc(-c3ccc(-c4ccccc4)cc3)nn12` [Example 54, 8-(4-biphenylyl)-5-dimethylaminomethyl-1H-1,2,4-triazolo[5,1-i]purine], for which the melting point is 284 to 286 °C (dec.). Consider `CN(C)CCCc1nc2nc[nH]c2c2nc(-c3ccc(-c4ccccc4)cc3)nn12` [Example 55, 8-(4-biphenylyl)-5-(3-dimethylaminopropyl)-1H-1,2,4-triazolo[5,1-i]purine], for which the melting point is 227 to 230 °C (dec.). In the case of `c1ccc(COCCCc2nc3nc[nH]c3c3nc(-c4ccc(-c5ccccc5)cc4)nn23)cc1` [Example 56, 5-(3-benzyloxypropyl)-8-(4-biphenylyl)-1H-1,2,4-triazolo[5,1-i]purine], the melting point lay in the range of 237 to 238 °C. The compound `c1ccc(COCCCCc2nc3nc[nH]c3c3nc(-c4ccc(-c5ccccc5)cc4)nn23)cc1` [Example 57, 5-(4-benzyloxybutyl)-8-(4-biphenylyl)-1H-1,2,4-triazolo[5,1-i]purine] yielded a melting point of 205 to 207 °C. As for `C[S+]([O-])Cc1nc2nc[nH]c2c2nc(-c3ccc(-c4ccccc4)cc3)nn12` (stereo not drawn) [Example 60, 8-(4-biphenylyl)-5-methylsulfinylmethyl-1H-1,2,4-triazolo[5,1-i]purine], the melting point is ≥ 246 °C (dec.). In the case of `C[S+]([O-])CCc1nc2nc[nH]c2c2nc(-c3ccc(-c4ccccc4)cc3)nn12` (stereo not drawn) [Example 61, 8-(4-biphenylyl)-5-(2-methylsulfinylethyl)-1H-1,2,4-triazolo[5,1-i]purine], the melting point is ≥ 234 °C (dec.).
